This passage reports IC50 results from US9850225B2, “Compounds useful as immunomodulators” (BRISTOL-MYERS SQUIBB COMPANY, priority 2014, dated 2017).

This experiment deals with PD-1/PD-L1 interaction (PD-1-Ig / PD-L1-His) (Homo sapiens (Human), UniProt Q9NZQ7). The experiment in a line: PD-1/PD-L1 Homogenous Time-Resolved Fluorescence (HTRF) binding assay. To be noted: PD-1/PD-L1 HTRF binding assay; value given as range class; read-out: Range or IC50. An outline of the steps:
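HTRF detection used 1 nM europium-cryptate anti-Ig and 20 nM APC anti-His. Compounds first saw 10 nM PD-L1-His for 15 min, and 20 nM PD-1-Ig was then added for another 15 min. Buffer was dPBS plus 0.1% BSA and 0.05% Tween-20. All concentrations are final.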
In general terms: Time-resolved FRET reads energy transfer from a long-lived donor to a nearby acceptor.

Where a name gives a salt, the structure may show the parent alone.

PD-1/PD-L1 interaction (PD-1-Ig / PD-L1-His), sequence (Q9NZQ7 other isoform, or with tags, fused parts or gaps): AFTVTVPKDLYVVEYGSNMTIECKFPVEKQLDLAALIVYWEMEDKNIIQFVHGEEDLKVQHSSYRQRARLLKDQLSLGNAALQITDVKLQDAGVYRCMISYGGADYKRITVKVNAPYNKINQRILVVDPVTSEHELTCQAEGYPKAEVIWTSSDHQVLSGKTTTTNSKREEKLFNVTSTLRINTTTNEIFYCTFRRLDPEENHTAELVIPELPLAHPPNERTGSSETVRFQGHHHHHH

As for `CC(=O)NCCNCc1cc(Cl)c(OCc2cccc(-c3ccc4c(c3)OCCO4)c2C)cc1OCc1cncc(Br)c1` [Example 1255, N-(2-(2-((5-bromopyridin-3-yl)methoxy)-5-chloro-4-(3-(2,3-dihydrobenzo[b][1,4]dioxin-6-yl)-2-methylbenzyloxy)benzylamino)ethyl)acetamide], the IC50 was in the range of 0.6 to 10 nM.

As for `Cc1c(COc2cc(OCc3cncc(C#N)c3)c(CN3CCCC[C@H]3C(=O)NS(C)(=O)=O)cc2Cl)cccc1-c1ccc2c(c1)OCCO2` [Example 1256, (S)-1-(5-chloro-2-((5-cyanopyridin-3-yl)methoxy)-4-((3-(2,3-dihydrobenzo[b][1,4]dioxin-6-yl)-2-methylbenzyl)oxy)benzyl)-N-(methylsulfonyl)piperidine-2-carboxamide], the IC50 is 0.6 to 10 nM.

Consider `Cc1c(COc2cc(OCc3cncc(C#N)c3)c(CN3CCCC[C@H]3C(=O)NS(=O)(=O)N(C)C)cc2Cl)cccc1-c1ccc2c(c1)OCCO2` [Example 1257, (S)-1-(5-chloro-2-((5-cyanopyridin-3-yl)methoxy)-4-((3-(2,3-dihydrobenzo[b][1,4]dioxin-6-yl)-2-methylbenzyl)oxy)benzyl)-N—(N,N-dimethylsulfamoyl)piperidine-2-carboxamide], for which the half-maximal inhibitory concentration (IC50) fell in the range of 10 to 100 nM.

With `Cc1c(COc2cc(OCc3cncc(C#N)c3)c(CN3CCCC[C@H]3C(=O)NS(=O)(=O)C(F)(F)F)cc2Cl)cccc1-c1ccc2c(c1)OCCO2` [Example 1258, (S)-1-(5-chloro-2-((5-cyanopyridin-3-yl)methoxy)-4-((3-(2,3-dihydrobenzo[b][1,4]dioxin-6-yl)-2-methylbenzyl)oxy)benzyl)-N-((trifluoromethyl)sulfonyl)piperidine-2-carboxamide], the half-inhibitory concentration (IC50) lay in the range of 10 to 100 nM.

Regarding `Cc1c(COc2cc(OCc3cncc(C#N)c3)c(CN3CCCC[C@H]3C(=O)NS(=O)(=O)C3CC3)cc2Cl)cccc1-c1ccc2c(c1)OCCO2` [Example 1259, (S)-1-(5-chloro-2-((5-cyanopyridin-3-yl)methoxy)-4-((3-(2,3-dihydrobenzo[b][1,4]dioxin-6-yl)-2-methylbenzyl)oxy)benzyl)-N-(cyclopropylsulfonyl)piperidine-2-carboxamide], the concentration for half-maximal inhibition (IC50) was 0.6 to 10 nM.

As for `Cc1c(COc2cc(OCc3cncc(C#N)c3)c(CN3CCCC[C@H]3C(=O)NS(=O)(=O)C(C)C)cc2Cl)cccc1-c1ccc2c(c1)OCCO2` [Example 1260, (S)-1-(5-chloro-2-((5-cyanopyridin-3-yl)methoxy)-4-((3-(2,3-dihydrobenzo[b][1,4]dioxin-6-yl)-2-methylbenzyl)oxy)benzyl)-N-(isopropylsulfonyl)piperidine-2-carboxamide], the concentration for half-maximal inhibition (IC50) lay within 0.6 to 10 nM.

Regarding `Cc1c(COc2cc(OCc3cncc(C#N)c3)c(CN3CCCC[C@H]3C(=O)NS(=O)(=O)c3cn(C)cn3)cc2Cl)cccc1-c1ccc2c(c1)OCCO2` [Example 1261, (S)-1-(5-chloro-2-((5-cyanopyridin-3-yl)methoxy)-4-((3-(2,3-dihydrobenzo[b][1,4]dioxin-6-yl)-2-methylbenzyl)oxy)benzyl)-N-((1-methyl-1H-imidazol-4-yl)sulfonyl)piperidine-2-carboxamide], the half-inhibitory concentration (IC50) was 0.6 to 10 nM.

As for `Cc1c(COc2cc(OCc3cncc(C#N)c3)c(CN3CCCC[C@H]3C(=O)NS(=O)(=O)N3CCN(C)CC3)cc2Cl)cccc1-c1ccc2c(c1)OCCO2` [Example 1262, (S)-1-(5-chloro-2-((5-cyanopyridin-3-yl)methoxy)-4-((3-(2,3-dihydrobenzo[b][1,4]dioxin-6-yl)-2-methylbenzyl)oxy)benzyl)-N-((4-methylpiperazin-1-yl)sulfonyl)piperidine-2-carboxamide], the concentration for half-maximal inhibition (IC50) lay in the range of 10 to 100 nM.

Regarding `Cc1c(COc2cc(O)c(CN[C@](C)(CO)C(=O)O)cc2Cl)cccc1-c1ccc2c(c1)OCCO2` [Example 1263, (R)-2-((5-chloro-4-((3-(2,3-dihydrobenzo[b][1,4]dioxin-6-yl)-2-methylbenzyl)oxy)-2-hydroxybenzyl)amino)-3-hydroxy-2-methylpropanoic acid, TFA], the half-inhibitory concentration (IC50) fell in the range of 100 to 20000 nM.

As to `CC(=O)NCCNCc1cc(C)c(OCc2cccc(-c3ccc4c(c3)OCCO4)c2C)cc1OCc1cccc(C#N)c1` [Example 1264, N-(2-((2-((3-cyanobenzyl)oxy)-4-((3-(2,3-dihydrobenzo[b][1,4]dioxin-6-yl)-2-methylbenzyl)oxy)-5-methylbenzyl)amino)ethyl)acetamide], the IC50 was 0.6 to 10 nM.

In the case of `Cc1cc(CNC[C@@H](O)CC(=O)O)c(OCc2cccc(C#N)c2)cc1OCc1cccc(-c2ccc3c(c2)OCCO3)c1C` [Example 1265, (S)-4-((2-((3-cyanobenzyl)oxy)-4-((3-(2,3-dihydrobenzo[b][1,4]dioxin-6-yl)-2-methylbenzyl)oxy)-5-methylbenzyl)amino)-3-hydroxybutanoic acid], the IC50 was in the range of 0.6 to 10 nM.

For `Cc1cc(CN[C@@](C)(CO)C(=O)O)c(OCc2cccc(C#N)c2)cc1OCc1cccc(-c2ccc3c(c2)OCCO3)c1C` [Example 1267, (S)-2-((2-((3-cyanobenzyl)oxy)-4-((3-(2,3-dihydrobenzo[b][1,4]dioxin-6-yl)-2-methylbenzyl)oxy)-5-methylbenzyl)amino)-3-hydroxy-2-methylpropanoic acid], the 50% inhibitory concentration (IC50) is 0.6 to 10 nM.

In the case of `Cc1cc(CN2CCCC[C@H]2C(=O)O)c(OCc2cccc(C#N)c2)cc1OCc1cccc(-c2ccc3c(c2)OCCO3)c1C` [Example 1268, (S)-1-(2-((3-cyanobenzyl)oxy)-4-((3-(2,3-dihydrobenzo[b][1,4]dioxin-6-yl)-2-methylbenzyl)oxy)-5-methylbenzyl)piperidine-2-carboxylic acid], the 50% inhibitory concentration (IC50) fell in the range of 0.6 to 10 nM.

For `Cc1cc(CN[C@](C)(CO)C(=O)O)c(OCc2cccc(C#N)c2)cc1OCc1cccc(-c2ccc3c(c2)OCCO3)c1C` [Example 1269, (R)-2-((2-((3-cyanobenzyl)oxy)-4-((3-(2,3-dihydrobenzo[b][1,4]dioxin-6-yl)-2-methylbenzyl)oxy)-5-methylbenzyl)amino)-3-hydroxy-2-methylpropanoic acid], the IC50 is 0.6 to 10 nM.

Turning to `Cc1cc(CNC[C@@H](O)CC(=O)O)c(OCc2ccc(F)c(C#N)c2)cc1OCc1cccc(-c2ccc3c(c2)OCCO3)c1C` [Example 1270, (S)-4-((2-((3-cyano-4-fluorobenzyl)oxy)-4-((3-(2,3-dihydrobenzo[b][1,4]dioxin-6-yl)-2-methylbenzyl)oxy)-5-methylbenzyl)amino)-3-hydroxybutanoic acid], the IC50 was 0.6 to 10 nM.

Consider `CC(=O)NCCNCc1cc(C)c(OCc2cccc(-c3ccc4c(c3)OCCO4)c2C)cc1OCc1ccc(F)c(C#N)c1` [Example 1271, N-(2-((2-((3-cyano-4-fluorobenzyl)oxy)-4-((3-(2,3-dihydrobenzo[b][1,4]dioxin-6-yl)-2-methylbenzyl)oxy)-5-methylbenzyl)amino)ethyl)acetamide], for which the half-maximal inhibitory concentration (IC50) was in the range of 0.6 to 10 nM.

Turning to `Cc1cc(CN2CCCC[C@H]2C(=O)O)c(OCc2ccc(F)c(C#N)c2)cc1OCc1cccc(-c2ccc3c(c2)OCCO3)c1C` [Example 1272, (S)-1-(2-((3-cyano-4-fluorobenzyl)oxy)-4-((3-(2,3-dihydrobenzo[b][1,4]dioxin-6-yl)-2-methylbenzyl)oxy)-5-methylbenzyl)piperidine-2-carboxylic acid], the IC50 is 0.6 to 10 nM.

As for `Cc1cc(CN[C@](C)(CO)C(=O)O)c(OCc2ccc(F)c(C#N)c2)cc1OCc1cccc(-c2ccc3c(c2)OCCO3)c1C` [Example 1273, (R)-2-((2-((3-cyano-4-fluorobenzyl)oxy)-4-((3-(2,3-dihydrobenzo[b][1,4]dioxin-6-yl)-2-methylbenzyl)oxy)-5-methylbenzyl)amino)-3-hydroxy-2-methylpropanoic acid], the IC50 is 0.6 to 10 nM.

On to `Cc1cc(CN[C@@H](CO)C(=O)O)c(OCc2ccc(F)c(C#N)c2)cc1OCc1cccc(-c2ccc3c(c2)OCCO3)c1C` [Example 1274, (S)-2-((2-((3-cyano-4-fluorobenzyl)oxy)-4-((3-(2,3-dihydrobenzo[b][1,4]dioxin-6-yl)-2-methylbenzyl)oxy)-5-methylbenzyl)amino)-3-hydroxypropanoic acid], for which the IC50 lay within 0.6 to 10 nM.

Consider `Cc1cc(CN[C@@](C)(CO)C(=O)O)c(OCc2ccc(F)c(C#N)c2)cc1OCc1cccc(-c2ccc3c(c2)OCCO3)c1C` [Example 1275, (S)-2-((2-((3-cyano-4-fluorobenzyl)oxy)-4-((3-(2,3-dihydrobenzo[b][1,4]dioxin-6-yl)-2-methylbenzyl)oxy)-5-methylbenzyl)amino)-3-hydroxy-2-methylpropanoic acid], for which the IC50 was in the range of 0.6 to 10 nM.

On to `CC(=O)NCCNCc1cc(C)c(OCc2cccc(-c3ccc4c(c3)OCCO4)c2C)cc1OCc1cccnc1` [Example 1276, N-(2-((4-((3-(2,3-dihydrobenzo[b][1,4]dioxin-6-yl)-2-methylbenzyl)oxy)-5-methyl-2-(pyridin-3-ylmethoxy)benzyl)amino)ethyl)acetamide], for which the half-inhibitory concentration (IC50) was 0.6 to 10 nM.

`Cc1cc(CN[C@@H](CO)C(=O)O)c(OCc2cccnc2)cc1OCc1cccc(-c2ccc3c(c2)OCCO3)c1C` [Example 1277, (S)-2-((4-((3-(2,3-dihydrobenzo[b][1,4]dioxin-6-yl)-2-methylbenzyl)oxy)-5-methyl-2-(pyridin-3-ylmethoxy)benzyl)amino)-3-hydroxypropanoic acid]: the IC50 fell in the range of 0.6 to 10 nM.

Turning to `Cc1cc(CNC[C@@H](O)CC(=O)O)c(OCc2cccnc2)cc1OCc1cccc(-c2ccc3c(c2)OCCO3)c1C` [Example 1278, (S)-4-((4-((3-(2,3-dihydrobenzo[b][1,4]dioxin-6-yl)-2-methylbenzyl)oxy)-5-methyl-2-(pyridin-3-ylmethoxy)benzyl)amino)-3-hydroxybutanoic acid], the IC50 fell in the range of 0.6 to 10 nM.

For the molecule `Cc1cc(CN2CCCC[C@H]2C(=O)O)c(OCc2cccnc2)cc1OCc1cccc(-c2ccc3c(c2)OCCO3)c1C` [Example 1279, (S)-1-(4-((3-(2,3-dihydrobenzo[b][1,4]dioxin-6-yl)-2-methylbenzyl)oxy)-5-methyl-2-(pyridin-3-ylmethoxy)benzyl)piperidine-2-carboxylic acid], the IC50 was 0.6 to 10 nM.

As a reminder, the IC50 is the midpoint of a concentration-inhibition curve.
